In paper PMC5458626 (American heart journal, 2017):
Entries after “also recorded” stand apart in the source; their conditions may differ.

Assays:
[1] = test system: Phosphodiesterase Type 5 (PDE5); conditions: major circulating metabolite; ref [15]–[17]; cited from earlier work
[2] = Plasma pharmacokinetics of udenafil and DA-8164; conditions: for DA-8164 Cmax: plasma metabolite
[3] = Adverse events; assay type: in vivo, human
[4] = Exercise stress test; assay type: in vivo, human; conditions: for Maximal VO2 at maximum exercise effort, follow-up measurement / VO2 at anaerobic threshold, follow-up measurement: day 5, mean ± SD
[5] = Echocardiography: myocardial performance index; assay type: in vivo, human; conditions: for Blood pool MPI, follow-up measurement / Tissue Doppler MPI, follow-up measurement: day 5; for Blood pool MPI, difference FU – BL: day 5 minus baseline (negative = improvement)
[6] = Vascular function by peripheral arterial tonometry; assay type: in vivo, human; conditions: for Augmentation Index adjusted to HR 75, follow-up measurement / Natural log of Reactive Hyperemic Index, follow-up measurement: day 5; for Natural log of Reactive Hyperemic Index, difference FU – BL: day 5 minus baseline (positive = improvement)
[7] = adult males, oral administration; ref [15]–[17]; cited from earlier work
[8] = metabolite, oral udenafil 37.5 mg bid for five days, mean (%CV), N=6
[9] = metabolite, oral udenafil 37.5 mg daily for five days, mean (%CV), N=6
[10] = metabolite, oral udenafil 125 mg daily for five days, mean (%CV), N=6
[11] = once-daily dosing, dose increased 3.3 times
[12] = oral udenafil 37.5 mg bid for five days, mean (%CV), N=6
[13] = oral udenafil 37.5 mg daily for five days, mean (%CV), N=6
[14] = oral udenafil 125 mg daily for five days, mean (%CV), N=6
[15] = twice-daily dosing, dose increased 2.3 times
[16] = total udenafil, all cohorts, N=30
[17] = udenafil 37.5 mg daily, 5 days, N=6
[18] = udenafil 37.5 mg twice daily, 5 days, N=6
[19] = udenafil 125 mg daily, 5 days, N=6
[20] = once-daily dosing, dose increased 3.3 times (37.5 to 125 mg)

CCCOc1ccc(S(N)(=O)=O)cc1-c1nc2c(CCC)nn(C)c2c(=O)[nH]1 [DA-8164]
Potency of DA-8164 relative to udenafil [1]: equipotent | DA-8164 T½ (harmonic mean half-life, 0.693/mean kel) ([2]; metabolite, oral udenafil 37.5 mg bid for five days, N=6): 14.1 h | DA-8164 Cavg (AUC0−τ/τ) [2, 8]: 108 (55) ng/mL | DA-8164 Tmax [2, 8]: 2.1 (78) h | DA-8164 kel [2, 8]: 0.0491 (16) h | DA-8164 AUC0−τ ([2]; metabolite, oral udenafil 37.5 mg bid for five days, τ = 12 hours, mean (%CV), N=6): 1290 (55) ng*h/mL | DA-8164 T½ (harmonic mean half-life, 0.693/mean kel) ([2]; metabolite, oral udenafil 37.5 mg daily for five days, N=6): 14.6 h | DA-8164 Cavg (AUC0−τ/τ) [2, 9]: 36.7 (43) ng/mL | DA-8164 Tmax [2, 9]: 3.1 (51) h | DA-8164 kel [2, 9]: 0.0474 (34) h | DA-8164 T½ (harmonic mean half-life, 0.693/mean kel) ([2]; metabolite, oral udenafil 125 mg daily for five days, N=6): 14.5 h | DA-8164 Cavg (AUC0−τ/τ) [2, 10]: 145 (14) ng/mL | DA-8164 Tmax [2, 10]: 3.8 (35) h | DA-8164 kel [2, 10]: 0.0480 (17) h | Fold increase of mean DA-8164 AUC0−τ with udenafil dose [2, 11]: 4 fold | Fold increase of mean DA-8164 Cmax with udenafil dose [2, 11]: 4.2 fold | DA-8164 Cmax [2, 12]: 159 (52) ng/mL | DA-8164 Cmax [2, 13]: 61.3 (46) ng/mL | DA-8164 Cmax [2, 14]: 256 (13) ng/mL | Fold increase of mean DA-8164 AUC0−τ with udenafil dose [2, 15]: 1.9 fold | Fold increase of mean DA-8164 Cmax with udenafil dose [2, 15]: 1.8 fold

CCCOc1ccc(S(=O)(=O)NCCC2CCCN2C)cc1-c1nc2c(CCC)nn(C)c2c(=O)[nH]1 (stereo not shown) [udenafil]
Subjects with facial flushing possibly or probably related to study medication ([3]; 30 subjects, all cohorts): 33% | Subjects with nasal congestion possibly or probably related to study medication ([3]; 30 subjects, all cohorts): 20% | Subjects with nausea possibly or probably related to study medication ([3]; 30 subjects, all cohorts): 10% | Dose dependence of reported AEs ([3]; across the five dosing cohorts): did not increase with increasing dose | Subjects with headache (most common AE) ([3]; of 30 subjects exposed to udenafil, all cohorts): 19 subjects | Subjects with headache possibly or probably related to study drug ([3]; of the 30 subjects, all cohorts): 63% | Drug-related serious adverse events ([3]; study period, all dosing cohorts): No drug-related serious AEs; also recorded: no drug-related serious adverse events were reported | Subjects who experienced drug-related (probably or possibly) adverse events: Headache [3, 16]: 19 (63) n (%) | Subjects who experienced drug-related adverse events: Abdominal discomfort [3, 16]: 2 (7) n (%) | Subjects who experienced drug-related adverse events: Back pain [3, 16]: 1 (3) n (%) | Subjects who experienced drug-related adverse events: Flushing [3, 16]: 10 (33) n (%) | Subjects who experienced drug-related adverse events: Nasal congestion [3, 16]: 6 (20) n (%) | Subjects who experienced drug-related adverse events: Nausea [3, 16]: 3 (10) n (%) | Subjects who experienced drug-related (probably or possibly) adverse events: Headache [3, 17]: 3 (50) n (%) | Subjects who experienced drug-related adverse events: Abdominal discomfort [3, 17]: 0 (0) n (%) | Subjects who experienced drug-related adverse events: Back pain [3, 17]: 0 (0) n (%) | Subjects who experienced drug-related adverse events: Flushing [3, 17]: 1 (17) n (%) | Subjects who experienced drug-related adverse events: Nasal congestion [3, 17]: 1 (17) n (%) | Subjects who experienced drug-related adverse events: Nausea [3, 17]: 1 (17) n (%) | Subjects who experienced drug-related adverse events: Spontaneous penile erection ([3]; udenafil 37.5 mg daily, 5 days, N=6, male subjects only): 0 (0) n (%) | Subjects who experienced drug-related (probably or possibly) adverse events: Headache [3, 18]: 4 (67) n (%) | Subjects who experienced drug-related adverse events: Abdominal discomfort [3, 18]: 0 (0) n (%) | Subjects who experienced drug-related adverse events: Back pain [3, 18]: 0 (0) n (%) | Subjects who experienced drug-related adverse events: Flushing [3, 18]: 2 (33) n (%) | Subjects who experienced drug-related adverse events: Nasal congestion [3, 18]: 2 (33) n (%) | Subjects who experienced drug-related adverse events: Nausea [3, 18]: 1 (17) n (%) | Subjects who experienced drug-related (probably or possibly) adverse events: Headache [3, 19]: 4 (67) n (%) | Subjects who experienced drug-related adverse events: Abdominal discomfort [3, 19]: 1 (17) n (%) | Subjects who experienced drug-related adverse events: Back pain [3, 19]: 0 (0) n (%) | Subjects who experienced drug-related adverse events: Flushing [3, 19]: 1 (17) n (%) | Subjects who experienced drug-related adverse events: Nasal congestion [3, 19]: 1 (17) n (%) | Subjects who experienced drug-related adverse events: Nausea [3, 19]: 0 (0) n (%) | Effect on exercise performance (baseline to day 5) ([4]; all dosing cohorts, 5 days): did not improve in any of the dosing cohorts | Maximal VO2 at maximum exercise effort, follow-up measurement ([4]; udenafil 37.5 mg BID, N=6): 28.8 ± 8.1 mL/min/kg | VO2 at anaerobic threshold, follow-up measurement ([4]; udenafil 37.5 mg BID, N=6): 18.1 ± 3.0 mL/min/kg | Maximal VO2 at maximum exercise effort, follow-up measurement ([4]; udenafil 37.5 mg QD, N=5): 24.7 ± 6.7 mL/min/kg | VO2 at anaerobic threshold, follow-up measurement ([4]; udenafil 37.5 mg QD, N=5): 16.3 ± 2.0 mL/min/kg | Maximal VO2 at maximum exercise effort, follow-up measurement ([4]; udenafil 125 mg QD, N=6): 28.6 ± 3.8 mL/min/kg | VO2 at anaerobic threshold, follow-up measurement ([4]; udenafil 125 mg QD, N=6): 20.0 ± 3.2 mL/min/kg | Blood pool MPI, follow-up measurement ([5]; all udenafil subjects, N=28): 0.52±0.17 | Tissue Doppler MPI, follow-up measurement ([5]; all udenafil subjects, N=28): 0.71±0.20 | Blood pool MPI, follow-up measurement ([5]; udenafil 37.5 mg BID, N=6): 0.49±0.087 | Tissue Doppler MPI, follow-up measurement ([5]; udenafil 37.5 mg BID, N=6): 0.73±0.23 | Blood pool MPI, follow-up measurement ([5]; udenafil 37.5 mg QD, N=5): 0.50±0.19 | Tissue Doppler MPI, follow-up measurement ([5]; udenafil 37.5 mg QD, N=5): 0.64±0.21 | Blood pool MPI, follow-up measurement ([5]; udenafil 125 mg QD, N=5): 0.70±0.20 | Tissue Doppler MPI, follow-up measurement ([5]; udenafil 125 mg QD, N=5): 0.82±0.27 | Blood pool MPI, difference FU – BL ([5]; all udenafil subjects, N=27): −0.059±0.13 | Blood pool MPI, difference FU – BL ([5]; udenafil 37.5 mg BID, N=6): −0.003±0.10 | Blood pool MPI, difference FU – BL ([5]; udenafil 37.5 mg QD, N=5): −0.052±0.17 | Blood pool MPI, difference FU – BL ([5]; udenafil 125 mg QD, N=5): −0.054±0.18 | Effect on lnRHI and AI (baseline to day 5) ([6]; all dosing cohorts, 5 days): no discernible differences between paired baseline and follow-up measures of lnRHI or AI in any dosing cohort | Augmentation Index adjusted to HR 75, follow-up measurement ([6]; all udenafil subjects, N=28): −2.18±13.91 | Natural log of Reactive Hyperemic Index, follow-up measurement ([6]; all udenafil subjects, N=28): 0.49±0.28 | Augmentation Index adjusted to HR 75, follow-up measurement ([6]; udenafil 37.5 mg BID, N=6): 2.89±7.11 | Natural log of Reactive Hyperemic Index, follow-up measurement ([6]; udenafil 37.5 mg BID, N=6): 0.53±0.29 | Augmentation Index adjusted to HR 75, follow-up measurement ([6]; udenafil 37.5 mg QD, N=6): −0.62±23.82 | Natural log of Reactive Hyperemic Index, follow-up measurement ([6]; udenafil 37.5 mg QD, N=6): 0.51±0.26 | Augmentation Index adjusted to HR 75, follow-up measurement ([6]; udenafil 125 mg QD, N=6): 1.90±8.65 | Natural log of Reactive Hyperemic Index, follow-up measurement ([6]; udenafil 125 mg QD, N=6): 0.52±0.34 | Natural log of Reactive Hyperemic Index, difference FU – BL ([6]; all udenafil subjects, N=27): −0.02±0.30 | Natural log of Reactive Hyperemic Index, difference FU – BL ([6]; udenafil 37.5 mg BID, N=6): −0.07±0.17 | Natural log of Reactive Hyperemic Index, difference FU – BL ([6]; udenafil 37.5 mg QD, N=6): 0.03±0.47 | Natural log of Reactive Hyperemic Index, difference FU – BL ([6]; udenafil 125 mg QD, N=6): −0.10±0.38 | Udenafil terminal half-life [7]: ~16 h | Dose dependence of oral clearance (CL/F) ([2]; across the five dosing cohorts): decreased with increasing dose | Cmax ([2]; human, plasma, po, 37.5 mg, Udenafil Cmax, oral udenafil 37.5 mg bid for five days, mean (%CV), N=6): 152 ng/mL | Effect of gender on dose-normalized Cmax and Cavg ([2]; male (N=17) vs female (N=13), oral udenafil 5 days): not different for the male and female patients | Fold increase of mean udenafil AUC0−τ with dose [2, 20]: 4 fold | Fold increase of mean udenafil Cmax with dose [2, 20]: 4.6 fold | Udenafil CL/F (oral clearance) [2, 12]: 39.9 (36) L/h | Udenafil CL/F (oral clearance) [2, 13]: 53.3 (40) L/h | Udenafil CL/F (oral clearance) [2, 14]: 43.3 (39) L/h
